Test results: paper PMC4928094, “The first characterization of multidrug and toxin extrusion (MATE/SLC47) proteins in zebrafish (Danio rerio)” (Scientific Reports, 2016)
Read-outs that look alike come from different tables or passages of the source.

Tests used:
zebrafish Mate4 = zebrafish Mate4 (Danio rerio, UniProt U3Q0C3); assay: DAPI inhibition assay, Mate4; type: cell-based
Description: (§1) HEK293T cells were transiently transfected as described previously[31] using the PEI (polyethyleneimine) reagent in 48-well plates. Cells were in parallel transfected with pcDNA3.1/His/LacZ plasmid and transfection efficiency was evaluated 24 h after transfection with the LacZ staining protocol.
(§2) HEK293T cells overexpressing respective single zebrafish Mate transporter were used for further experiments. […] DAPI fluorescence was measured at 360 and 460 nm […], respectively. The uptake into vector-transfected HEK293T cells (mock cells) was subtracted to obtain transporter-specific uptake.
(§3) Inhibition assays using DAPI as a fluorescent substrate were performed in the same transport medium. […] Compounds tested for interaction were checked using at least four concentrations but only a representative concentration (with the highest response or the largest concentration in solubility range) is shown.
(§4) For the purpose of IC50 calculations, data were fitted to the sigmoidal four-parameter dose-response model (variable slope),

zebrafish Mate6 = zebrafish Mate6 (Danio rerio, UniProt A1L2E7); assay: DAPI inhibition assay, Mate6; type: cell-based
zebrafish Mate6, sequence (A1L2E7 entry or part of it): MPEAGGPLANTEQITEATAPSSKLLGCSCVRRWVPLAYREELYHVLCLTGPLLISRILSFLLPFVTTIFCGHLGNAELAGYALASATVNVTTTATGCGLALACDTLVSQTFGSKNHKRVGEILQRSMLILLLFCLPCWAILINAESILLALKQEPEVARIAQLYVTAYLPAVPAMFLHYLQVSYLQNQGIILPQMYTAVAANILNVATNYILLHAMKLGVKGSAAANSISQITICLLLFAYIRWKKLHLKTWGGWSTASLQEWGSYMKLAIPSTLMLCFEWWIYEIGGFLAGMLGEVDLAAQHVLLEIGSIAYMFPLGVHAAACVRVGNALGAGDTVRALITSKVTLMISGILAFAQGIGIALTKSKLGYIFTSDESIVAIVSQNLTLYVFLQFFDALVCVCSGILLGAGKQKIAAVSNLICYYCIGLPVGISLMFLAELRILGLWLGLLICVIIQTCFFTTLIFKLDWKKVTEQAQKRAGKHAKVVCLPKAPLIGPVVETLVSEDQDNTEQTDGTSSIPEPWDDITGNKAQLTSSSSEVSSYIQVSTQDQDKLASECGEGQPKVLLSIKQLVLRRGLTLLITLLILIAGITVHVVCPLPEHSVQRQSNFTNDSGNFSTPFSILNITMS
Description: as §1, §2, §3, §4

zebrafish Mate7 = zebrafish Mate7 (Danio rerio, UniProt U3PTD6); assay: DAPI inhibition assay, Mate7; type: cell-based; settings: for interaction strength: Mate7, class by IC50 of DAPI uptake inhibition
zebrafish Mate7, sequence (U3PTD6 entry or part of it): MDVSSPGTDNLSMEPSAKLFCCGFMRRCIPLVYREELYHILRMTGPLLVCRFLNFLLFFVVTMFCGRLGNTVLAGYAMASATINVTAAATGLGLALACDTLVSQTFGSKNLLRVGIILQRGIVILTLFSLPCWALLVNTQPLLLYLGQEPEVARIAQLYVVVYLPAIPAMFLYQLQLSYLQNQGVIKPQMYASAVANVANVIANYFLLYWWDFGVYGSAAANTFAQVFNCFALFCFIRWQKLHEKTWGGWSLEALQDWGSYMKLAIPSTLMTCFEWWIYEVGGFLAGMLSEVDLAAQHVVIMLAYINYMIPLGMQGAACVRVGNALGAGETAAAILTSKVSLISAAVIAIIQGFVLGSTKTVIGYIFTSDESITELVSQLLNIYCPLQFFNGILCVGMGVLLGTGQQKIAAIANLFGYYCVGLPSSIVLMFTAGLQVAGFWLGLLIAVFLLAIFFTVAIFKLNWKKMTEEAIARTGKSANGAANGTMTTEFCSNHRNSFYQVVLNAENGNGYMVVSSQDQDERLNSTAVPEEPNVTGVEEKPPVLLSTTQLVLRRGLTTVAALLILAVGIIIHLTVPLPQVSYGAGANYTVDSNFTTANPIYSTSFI
Description: as §1, §2, §3, §4

zebrafish Mate8 = zebrafish Mate8 (Danio rerio, UniProt A0A8M6YZ09); assay: DAPI inhibition assay, Mate8; type: cell-based; settings: for interaction strength: Mate8, class by IC50 of DAPI uptake inhibition
zebrafish Mate8, sequence (A0A8M6YZ09 entry or part of it): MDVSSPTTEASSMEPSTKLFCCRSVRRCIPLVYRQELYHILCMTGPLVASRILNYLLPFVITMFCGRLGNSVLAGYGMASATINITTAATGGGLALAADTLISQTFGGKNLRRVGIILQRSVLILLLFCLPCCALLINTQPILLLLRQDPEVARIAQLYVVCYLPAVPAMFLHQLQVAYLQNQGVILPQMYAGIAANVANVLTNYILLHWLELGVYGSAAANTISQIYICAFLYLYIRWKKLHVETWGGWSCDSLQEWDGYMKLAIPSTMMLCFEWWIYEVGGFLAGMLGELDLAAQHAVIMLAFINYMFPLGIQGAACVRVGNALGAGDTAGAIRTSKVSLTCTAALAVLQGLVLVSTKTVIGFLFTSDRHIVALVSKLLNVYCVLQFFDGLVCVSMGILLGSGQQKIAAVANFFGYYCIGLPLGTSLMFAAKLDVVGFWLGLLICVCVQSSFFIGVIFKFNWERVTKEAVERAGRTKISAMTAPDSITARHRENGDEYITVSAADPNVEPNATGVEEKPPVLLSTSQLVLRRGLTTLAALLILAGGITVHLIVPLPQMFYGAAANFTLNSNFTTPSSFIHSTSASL
Description: as §1, §2, §3, §4

rat Mate1 = rat Mate1 ref 3; cited from earlier work
human MATE1 = human MATE1 ref 40; cited from earlier work
human MATE2 = human MATE2 ref 40; cited from earlier work

zebrafish Mate4, sequence (U3Q0C3 entry or part of it): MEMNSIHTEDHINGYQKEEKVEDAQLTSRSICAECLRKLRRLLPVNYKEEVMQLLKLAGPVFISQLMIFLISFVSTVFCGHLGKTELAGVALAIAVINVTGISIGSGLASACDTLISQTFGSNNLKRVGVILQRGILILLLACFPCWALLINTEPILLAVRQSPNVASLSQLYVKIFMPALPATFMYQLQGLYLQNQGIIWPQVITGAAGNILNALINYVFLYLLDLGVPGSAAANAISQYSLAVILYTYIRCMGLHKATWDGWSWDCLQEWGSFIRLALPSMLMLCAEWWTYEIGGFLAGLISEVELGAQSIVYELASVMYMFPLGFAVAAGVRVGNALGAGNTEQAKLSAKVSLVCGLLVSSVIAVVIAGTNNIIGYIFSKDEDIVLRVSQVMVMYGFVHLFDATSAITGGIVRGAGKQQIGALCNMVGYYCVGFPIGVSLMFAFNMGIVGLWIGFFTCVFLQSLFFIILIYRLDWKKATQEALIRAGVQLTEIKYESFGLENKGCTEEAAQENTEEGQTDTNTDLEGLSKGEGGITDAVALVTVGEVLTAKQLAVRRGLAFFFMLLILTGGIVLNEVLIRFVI

| Compound | IC50 (zebrafish Mate4) [µM] | IC50 (zebrafish Mate6) [µM] | IC50 (zebrafish Mate7) [µM] | interaction strength (zebrafish Mate7) | IC50 (zebrafish Mate8) [µM] | interaction strength (zebrafish Mate8) | Km (rat Mate1) [µM] | IC50 (zebrafish Mate4; read-out: IC50) [µM] | IC50 (zebrafish Mate6; read-out: IC50) [µM] | IC50 (zebrafish Mate7; read-out: IC50) [µM] | IC50 (zebrafish Mate8; read-out: IC50) [µM] | Km (human MATE1) [µM] | Km (human MATE2) [µM] |
| --- | --- | --- | --- | --- | --- | --- | --- | --- | --- | --- | --- | --- | --- |
| CN/C(=N/CCSCc1nc[nH]c1C)NC#N [Cimetidine, cimetidine, reference compound] | 134 | 357 | 573 | weak (IC50 of 100–999 μM was classified as weak interaction) | 4.5 | strong (Compounds with IC50 of 1–29 μM were designated as strong interactors) | 3 | – | – | – | – | – | – |
| Cc1ncc(C[n+]2csc(CCO)c2C)c(N)n1 [Thiamine, thiamine] | – | – | – | weak (IC50 of 100–999 μM was classified as weak interaction) | – | very weak (substances with IC50 above 1000 μM were considered very weak interactors) | – | 805 | 724 | 935 | 1900 | 3.5 | 3.9 |
